Data published in patent US10494365B2, “Small molecule inhibitor of 3-phosphoglycerate dehydrogenase and uses thereof” (The Scripps Research Institute, priority 2015, dated 2019).
Entries after “also recorded” stand apart in the source; their conditions may differ.

Assays:
[1] = tested on: lactate dehydrogenase (LDH); test: LDH assay (kit, recombinant enzyme); type: biochemical; settings: at concentrations consistent with the PHGDH IC50 / drug concentrations used in cells
Procedure: (§1) Enzyme activities were assayed using kits (LDH: Sigma MAK06; MDH1: Sigma MAK196-1KT) according to the manufacturer's instructions with commercially available recombinant enzyme (LDH: Sigma 59747; MDH1: Sigma SRP6103).

MCF7 cells = test: Proliferation assay, MCF7; type: cell-based
Procedure: (§2) Cells were plated at a low density in 96 or 24 well plates in serine containing media. The following day, media was aspirated, cells were washed with PBS, and fresh serine replete or deplete media containing drug (15 μM, 30 μM) or vehicle (DMSO) was added. Cells were grown for 3 to 5 days, with drug and media changed daily before assaying relative cell numbers.

Carney cells = test: Acute drug treatment with 13C6-glucose tracing (GCMS, LC-MS/MS); type: cell-based; settings: acute treatment; for serine labeling: dose response
Procedure: (§3) Carney cells acclimated to growth in MEM (Corning) were plated at 9×10^5 cells per 6 cm dish the night before. The following morning, media was replaced with fresh media containing (1) (1 μM, 15 μM, 30 μM) or vehicle control (DMSO) for 1h. Media was then aspirated, cells were washed with PBS, and fresh glucose free MEM (Gibco) supplemented with ^13C6-glucose (3 g/L, Cambridge Isotopes) and 10% dialyzed FBS containing drug or DMSO was added. After 2h, cells were quickly washed with cold PBS on ice and flash frozen. Polar metabolites were extracted as in the GCMS methods.
(§4) Polar metabolites were extracted with 2 ml MeOH/H2O (4:1) for 30 min on dry ice, scraped, transferred to 2 ml tubes, centrifuged (30 min, 15000 rpm), and the supernatants dried under vacuum. Samples were derivatized as previously described and analyzed on an Agilent 6890 GC instrument. Metabolite quantification was inferred from a standard curve and fractional enrichment of ^13C in metabolites was corrected for the natural abundance of ^13C and ^15N.
(§5) Polar metabolites were extracted and dried as in the GCMS method. Samples were resuspended in 15 μl of HPLC grade water. 5 μl of each sample was injected and analyzed using a 5500 QTRAP triple quadrupole mass spectrometer (AB/Sciex) coupled to a Prominence UFLC system (Shimadzu) as reported previously.
(§6) Newly synthesized serine has a mass-shift of 3 (M+3) due to the incorporation of glucose-derived ^13C via 3-PG. The kinetics of serine labeling were investigated.

cells = test: as above; type: cell-based; settings: LC-MS/MS, greater panel of metabolites
Procedure: as §3, §4, §5, §6

[2] = target: truncated form of PHGDH, which lacks the C-terminal domain (Homo sapiens, UniProt O43175)
Procedure: (§7) PHGDH activity was measured in 96-well plates by monitoring NADH fluorescence (Ex340 nm/Em460 nm) over time. PSAT1 was included to prevent product inhibition of PHGDH.

[3] = tested on: MDA-MB-468 (468) breast cancer cells; test: LC-MS/MS metabolite profiling versus PHGDH knockdown; type: cell-based; settings: 30 μM, 24 hours
Procedure: MDA-MB-468 (468) breast cancer cells (PHGDH amplified) were grown in DMEM supplemented with FBS (10%), penicillin, and streptomycin. 468 cells stably expressing PHGDH knockdown constructs were generated by infecting 468 cells with lentivirus harboring pLKO.1 shRNAs against PHGDH (sh29) or (sh31) and a nontargeting control (shGFP). Following infections, cells were selected for 2 days using puromycin prior to seeding in 10 cm plates for the experiment. PHGDH knockdown cells (sh29 and sh31) were seeded in 10 cm plates, each in triplicate, and shGFP cells in sextuplet. […] After 24 hours of treatment, the media were aspirated, and cells were washed with cold PBS prior to flash freezing. Subsequently, polar metabolites were extracted with 80% methanol for 30 minutes, scraped, transferred to Eppendorf tubes, centrifuged to remove insoluble matter, and dried. […] Briefly, samples were injected and analyzed using a 5500 QTRAP triple quadrupole mass spectrometer (AB/Sciex) coupled to a Prominence UFLC system (Shimadzu). Approximately 250 metabolites were analyzed by single reaction monitoring (SRM).

LDH = test: Cross-linking assay, LDH; settings: BS3 cross-linking, SDS-PAGE
From the text: (§8) Samples were run on SDS-PAGE and colloidal coomassie stained (Bio-Rad).

MDH1 = target: T1, MDH1 (Homo sapiens, UniProt P40925); test: MDH1 assay (kit, recombinant enzyme); type: biochemical; settings: at concentrations consistent with the PHGDH IC50
T1 construct: purchased Sigma SRP6103
T1 sequence (P40925 1-334): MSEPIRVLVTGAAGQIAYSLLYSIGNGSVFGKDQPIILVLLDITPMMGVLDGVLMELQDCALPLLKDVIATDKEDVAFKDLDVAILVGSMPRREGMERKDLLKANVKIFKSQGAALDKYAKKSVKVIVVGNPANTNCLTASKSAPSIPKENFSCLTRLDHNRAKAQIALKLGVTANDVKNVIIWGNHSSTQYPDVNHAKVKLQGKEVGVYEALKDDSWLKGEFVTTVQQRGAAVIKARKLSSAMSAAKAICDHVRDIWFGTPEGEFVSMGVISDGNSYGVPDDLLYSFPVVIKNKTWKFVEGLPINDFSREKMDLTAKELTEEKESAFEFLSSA
Procedure: as §1

[4] = tested on: MDA-MB-468, MDA-MB-436, HCC70, and Hs578T; test: cells; settings: read-out: growth inhibition
Procedure: as §2

PHGDH [5] = target: T2, PHGDH (Homo sapiens, UniProt O43175); settings: BS3 cross-linking, SDS-PAGE
T2 sequence (O43175 1-533): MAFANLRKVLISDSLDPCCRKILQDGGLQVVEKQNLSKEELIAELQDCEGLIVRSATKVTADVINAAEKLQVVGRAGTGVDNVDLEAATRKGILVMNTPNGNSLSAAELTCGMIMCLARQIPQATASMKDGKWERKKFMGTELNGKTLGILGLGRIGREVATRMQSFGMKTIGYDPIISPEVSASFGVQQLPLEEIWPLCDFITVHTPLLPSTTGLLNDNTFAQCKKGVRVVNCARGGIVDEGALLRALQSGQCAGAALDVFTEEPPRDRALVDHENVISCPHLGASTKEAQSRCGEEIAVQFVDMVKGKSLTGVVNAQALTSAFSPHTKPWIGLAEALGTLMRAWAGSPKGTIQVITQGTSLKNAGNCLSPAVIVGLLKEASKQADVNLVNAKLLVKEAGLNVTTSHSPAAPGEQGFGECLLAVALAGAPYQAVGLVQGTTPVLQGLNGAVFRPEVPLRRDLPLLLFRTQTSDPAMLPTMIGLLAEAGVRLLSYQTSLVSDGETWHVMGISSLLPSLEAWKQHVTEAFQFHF
From the text: as §8

PHGDH [6] = target: T2, PHGDH; test: PHGDH assay (NADH fluorescence, PSAT1 coupled); type: biochemical; design: His6; made in house; host or cells: BL21 E. coli
Procedure: as §7

MDA-MB-468 cells = test: Proliferation assay, MDA-MB-468; type: cell-based
Procedure: as §2

Compound | effect on lactate dehydrogenase (LDH) [1] | sensitivity of proliferation to drug (MCF7 cells; serine deplete conditions) | sensitivity of proliferation to drug (MCF7 cells; serine replete conditions) | serine labeling (Carney cells; 15 μM) | serine labeling (Carney cells; 30 μM) | perturbations in labeling (3-PG, pyruvate, lactate versus serine) (Carney cells; GCMS) | glycolytic metabolites (cells) | inhibition of truncated PHGDH [2] | purine metabolites (AMP, dAMP, IMP, GDP, dGDP, GMP levels) [3] | decrease of intracellular serine levels ([3]; normalized to control treatment) | LDH oligomerization state (LDH) | effect on MDH1 (MDH1) | inhibition at 30 µM [4] | PHGDH oligomerization state (PHGDH [5]) | time dependence of onset of inhibition (PHGDH [6]; increasing pre-incubation time of drug and PHGDH) | mode of inhibition (PHGDH [6]; with respect to both substrates, decreasing Vmax) | effect on proliferation (MDA-MB-468 cells) | potency against and selectivity for PHGDH, acid derivative versus parent (PHGDH [6]; in vitro)
CCOC(=O)c1sc(NC(=O)c2ccco2)c(SC#N)c1C [Compound (1), Ethyl 5-(furan-2-carboxamido)-3-methyl-4-thiocyanatothiophene-2-carboxylate] | no effect; also recorded: does not inhibit | partially sensitive | insensitive | trended towards a decrease | significantly decreased | specific to serine | unperturbed | still inhibited | down regulated | 50% | No such effect | no effect | 35 to 60% | shifted the PHGDH equilibrium from the tetrameric to the dimeric state | progressively more potent | non-competitive | – | –
Cc1c(C(=O)O)sc(NC(=O)c2ccco2)c1SC#N [carboxylic acid derivative, 5-(furan-2-carboxamido)-3-methyl-4-thiocyanatothiophene-2-carboxylic Acid] | – | – | – | – | – | – | – | – | – | – | – | – | – | – | – | – | not effective | equally potent
